Starred links: 1 amine or outer side, 2 acyl side, 3 side chain; linkers in the order of their positions; H or OH if unused. Residues, ends and D or L forms follow the SMILES beside them. Groups on a side chain read outwards from the residue. *: point of attachment. C20 diacid = O=C(O)CCCCCCCCCCCCCCCCCCC(=O)*; γGlu = O=C(O)[C@H](CCC(=O)[*:2])N[*:1]
Assays:
Experiment in all cases: NPY receptor functional assay (cAMP, HEK-CNG cells, ACTOne membrane potential dye)
Format in all cases: cell-based
[1] = biological target: T1, human Y2 receptor (Homo sapiens, UniProt P49146); details: NPY2R pEC50, HEK-CNG cells; standard PYY(3-36); species (human or rat) not given
T1 sequence (P49146 1-381): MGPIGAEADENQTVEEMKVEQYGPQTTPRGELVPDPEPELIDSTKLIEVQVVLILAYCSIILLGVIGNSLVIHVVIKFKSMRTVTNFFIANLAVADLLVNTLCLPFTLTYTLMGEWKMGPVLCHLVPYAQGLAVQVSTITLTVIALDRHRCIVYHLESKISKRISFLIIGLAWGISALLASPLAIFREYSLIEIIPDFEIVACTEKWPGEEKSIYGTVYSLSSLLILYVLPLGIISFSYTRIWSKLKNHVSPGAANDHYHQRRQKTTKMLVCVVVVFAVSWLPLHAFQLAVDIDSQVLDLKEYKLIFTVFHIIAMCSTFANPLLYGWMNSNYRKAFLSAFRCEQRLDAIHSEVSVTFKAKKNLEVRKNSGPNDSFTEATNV
Procedure, shortened: (§1)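 HEK-CNG cells stably expressing each human receptor; peptides added in triplicate for 50 minutes at room temperature, with agonism read as decreased isoproterenol-induced membrane potential dye signal (final/initial read).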

[2] = biological target: human Y4 receptor (Homo sapiens, UniProt P50391); details: standard PP, species (human or rat) not given
Procedure, shortened: as §1

[3] = biological target: T2, human Y5 receptor (Homo sapiens, UniProt Q15761); details: NPY5R pEC50, HEK-CNG cells; standard NPY; species (human or rat) not given
T2 sequence (Q15761 1-445): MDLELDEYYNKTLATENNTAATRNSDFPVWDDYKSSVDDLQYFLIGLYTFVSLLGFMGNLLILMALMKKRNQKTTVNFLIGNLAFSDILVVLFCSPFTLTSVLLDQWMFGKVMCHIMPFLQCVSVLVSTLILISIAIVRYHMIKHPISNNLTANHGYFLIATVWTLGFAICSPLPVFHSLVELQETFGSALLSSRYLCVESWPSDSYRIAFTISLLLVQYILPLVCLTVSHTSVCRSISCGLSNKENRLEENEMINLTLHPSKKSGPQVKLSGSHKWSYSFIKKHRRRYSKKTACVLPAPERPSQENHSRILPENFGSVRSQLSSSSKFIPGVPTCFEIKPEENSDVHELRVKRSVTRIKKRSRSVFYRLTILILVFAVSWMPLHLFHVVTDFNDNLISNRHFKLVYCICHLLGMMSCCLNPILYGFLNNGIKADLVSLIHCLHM
Procedure, shortened: as §1

Chain of human Y4 receptor (P50391 whole entry): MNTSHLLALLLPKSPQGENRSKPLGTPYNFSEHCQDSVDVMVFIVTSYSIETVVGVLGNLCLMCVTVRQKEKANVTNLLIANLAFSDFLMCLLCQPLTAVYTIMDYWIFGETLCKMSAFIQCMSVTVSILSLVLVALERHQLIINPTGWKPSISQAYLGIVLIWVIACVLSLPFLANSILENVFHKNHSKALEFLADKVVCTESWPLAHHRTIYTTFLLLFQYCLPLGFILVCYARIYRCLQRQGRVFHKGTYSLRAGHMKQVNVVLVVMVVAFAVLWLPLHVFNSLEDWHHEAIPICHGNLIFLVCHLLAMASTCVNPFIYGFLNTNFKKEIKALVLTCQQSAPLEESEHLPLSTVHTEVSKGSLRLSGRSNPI

SMILES | EC50 [1] [nM] | NPY4R pEC50 [2] | EC50 [3] [nM]
CC(C)C[C@H](NC(=O)[C@H](CC(=O)O)NC(=O)[C@H](CCCCNC(=O)CC[C@H](NC(=O)CC[C@H](NC(=O)CCCCCCCCCCCCCCCCCCC(=O)O)C(=O)O)C(=O)O)NC(=O)[C@H](Cc1ccc(O)cc1)NC(=O)[C@H](Cc1ccc(O)cc1)NC(=O)[C@H](CCCNC(=N)N)NC(=O)[C@H](CC(N)=O)NC(=O)[C@H](Cc1c[nH]c2ccccc12)NC(=O)[C@H](CCC(=O)O)NC(=O)[C@H](CCC(=O)O)NC(=O)[C@@H]1CCCN1C(=O)[C@H](CO)NC(=O)[C@H](C)NC(=O)[C@H](CC(=O)O)NC(=O)[C@H](CCCCN)NC(=O)CNC(=O)[C@@H]1CCCN1C(=O)[C@H](C)NC(=O)[C@H](CCC(=O)O)NC(=O)[C@@H]1CCCN1C(=O)[C@H](CCCCN)NC(=O)[C@@H]1CCCN1)C(=O)N[C@@H](CCCNC(=N)N)C(=O)N[C@@H](Cc1c[nH]cn1)C(=O)N[C@@H](Cc1ccc(O)cc1)C(=O)N[C@@H](CC(C)C)C(=O)N[C@@H](CC(N)=O)C(=O)N[C@@H](Cc1c[nH]c2ccccc12)C(=O)N[C@@H](CC(C)C)C(=O)N[C@H](C(=O)N[C@@H](CCCNC(=N)N)C(=O)N[C@@H](CCC(N)=O)C(=O)N[C@@H](CCCNC(=N)N)C(=O)N[C@@H](Cc1ccccc1)C(N)=O)[C@@H](C)O [Compound A54] | 20 | inactive | 10
CC(C)C[C@H](NC(=O)[C@H](CC(=O)O)NC(=O)[C@H](C)NC(=O)[C@H](Cc1ccc(O)cc1)NC(=O)[C@H](Cc1ccc(O)cc1)NC(=O)[C@H](CCCNC(=N)N)NC(=O)[C@H](CCCCNC(=O)CC[C@H](NC(=O)CC[C@H](NC(=O)CCCCCCCCCCCCCCCCCCC(=O)O)C(=O)O)C(=O)O)NC(=O)[C@H](Cc1c[nH]c2ccccc12)NC(=O)[C@H](CCC(=O)O)NC(=O)[C@H](CCC(=O)O)NC(=O)[C@@H]1CCCN1C(=O)[C@H](CO)NC(=O)[C@H](C)NC(=O)[C@H](CC(=O)O)NC(=O)[C@H](CCCCN)NC(=O)CNC(=O)[C@@H]1CCCN1C(=O)[C@H](C)NC(=O)[C@H](CCC(=O)O)NC(=O)[C@@H]1CCCN1C(=O)[C@H](CCCCN)NC(=O)[C@@H]1CCCN1)C(=O)N[C@@H](CCCNC(=N)N)C(=O)N[C@@H](Cc1c[nH]cn1)C(=O)N[C@@H](Cc1ccc(O)cc1)C(=O)N[C@@H](CC(C)C)C(=O)N[C@@H](CC(N)=O)C(=O)N[C@@H](Cc1c[nH]c2ccccc12)C(=O)N[C@@H](CC(C)C)C(=O)N[C@H](C(=O)N[C@@H](CCCNC(=N)N)C(=O)N[C@@H](CCC(N)=O)C(=O)N[C@@H](CCCNC(=N)N)C(=O)N[C@@H](Cc1ccccc1)C(N)=O)[C@@H](C)O [Compound A55] | 1.26 | inactive | 20
CC(C)C[C@H](NC(=O)[C@H](Cc1ccc(O)cc1)NC(=O)[C@H](Cc1c[nH]cn1)NC(=O)[C@H](CCCNC(=N)N)NC(=O)[C@H](C)NC(=O)[C@H](CC(=O)O)NC(=O)[C@H](C)NC(=O)[C@H](Cc1ccc(O)cc1)NC(=O)[C@H](Cc1ccc(O)cc1)NC(=O)[C@H](CCCNC(=N)N)NC(=O)[C@H](CC(N)=O)NC(=O)[C@H](CC(C)C)NC(=O)[C@H](CCC(=O)O)NC(=O)[C@H](CCC(=O)O)NC(=O)[C@@H]1CCCN1C(=O)[C@H](CO)NC(=O)[C@H](C)NC(=O)[C@H](CC(=O)O)NC(=O)[C@H](CCCCN)NC(=O)[C@H](CCCCNC(=O)CC[C@H](NC(=O)CC[C@H](NC(=O)CCCCCCCCCCCCCCCCCCC(=O)O)C(=O)O)C(=O)O)NC(=O)[C@@H]1CCCN1C(=O)[C@H](C)NC(=O)[C@H](CCC(=O)O)NC(=O)[C@@H]1CCCN1C(=O)[C@H](CCCCN)NC(=O)[C@@H]1CCCN1)C(=O)N[C@@H](CC(N)=O)C(=O)N[C@@H](Cc1c[nH]c2ccccc12)C(=O)N[C@@H](CC(C)C)C(=O)N[C@H](C(=O)N[C@@H](CCCNC(=N)N)C(=O)N[C@@H](CCC(N)=O)C(=O)N[C@@H](CCCNC(=N)N)C(=O)N[C@@H](Cc1ccccc1)C(N)=O)[C@@H](C)O [Compound A64] (H-PKPEAPK([γGlu-γGlu-C20 diacid])KDASPEELNRYYADARHYLNWLTRQRF-NH2; N-terminus assumed) | 2.51 | inactive | 12.6
